Measurements taken from patent publication US7417062B2, “Substituted arylamides” (ChemoCentryx, Inc., priority 2004, dated 2008).
pIC50: −log10 of the molar value.

What follows are molecules tested against T1, CCXCKR2 receptor (Homo sapiens, UniProt P25106) (assay: Displacement of 125I-labeled SDF-1 from the CCXCKR2 receptor (radioligand binding, determination of IC50 values)). Settings: not given.
T1 construct: host or cells: MCF-7 (endogenous) and/or MDA-MB-435S transfected with hRDC1 in pcDNA3.1(+)
Procedure: The ability of the compounds to displace the labeled chemokine from the CCXCKR2 receptor sites at multiple concentrations was then determined with the screening process.
Compounds that were deemed effective modulators were able to displace at least 50% of the SDF-1 from the CCXCKR2 receptor at concentrations at or below 10 micromolar (μM) and more preferably at concentrations at or below 2 micromolar. At present, especially preferred compounds can displace at least 50% of the SDF-1 from the CCXCKR2 receptor at concentrations at or below 500 nM. Exemplary compounds that met these criteria are reproduced in Table B below. All compounds were prepared as described in the Examples above, or by related methods substituting readily available starting materials.
Reagents and Cells. ^125I-labeled SDF-1 was purchased from Perkin-Elmer Life Sciences, Inc. (Boston, Mass.). The MCF-7 (adenocarcinoma; mammary gland) cell line was obtained from the American Type Culture Collection (Manassas, Va.) or and was cultured in DMEM (Mediatech, Herndon, Va.) supplemented with 10% fetal bovine serum (FBS) (HyClone Logan, Utah) and bovine insulin (0.01 mg/mL) (Sigma, St. Louis, Mo.) at 37° C. in a humidified incubator at a 5% CO2/air mixture. CCXCKR2 transfected MDA-MB-435S were produced as described below. MDA-MB-435S human breast cancer line, was purchased from ATCC, and cultured in DMEM/10% FBS medium. The complete coding sequence of the gene encoding CCXCKR2 (a.k.a.CXCR7, hRDC1), was isolated from MCF-7 cells using μMACs mRNA isolation kit (Miltenyi Biotec, Auburn, Calif.). DNA contamination was removed by DNase digestion via RNeasy columns (Qiagen, Inc., Valencia, Calif.) and cDNA was generated using GeneAmp RNA PCR Core Kit (Applied Biosystems, Foster City, Calif.). PCR of cDNA samples was performed using Taq PCR Master Mix kit (Qiagen, Inc.) and hRDC1 primers harboring 5′ and 3′ Not I sites (hRDC1F 5′-[…]-3′ (SEQ ID NO:1), hRDC1R 5′-[…]-3′ (SEQ ID NO:2)) Not I digested PCR product was ligated into Not I digested pcDNA3.1(+)(Invitrogen, Carlsbad, Calif.) and screened for orientation and sequence confirmed. Plasmid DNA was then isolated from overnight bacterial cultures by Maxiprep (Qiagen, Inc.). Plasmid DNA (10 μg) was added to MDA-MB-435s cells and cells were electroporated (0.22 kV, 960 uF) via Gene Pulser (Biorad laboratories, Hercules, Calif.). 48 hr post-electroporation, cells were transferred to selection medium (1000 ug/ml G418).
Binding Analysis. Target compounds were tested to determine their ability to bind with CCXCKR2 sites on MCF-7 and/or MDA-MB-435S cells. Efficiency-maximized radioligand binding using filtration protocols as described in Dairaghi D J, et al., HHV8-encoded vMIP-I selectively engages chemokine receptor CCR5. Agonist and antagonist profiles of viral chemokines., J. Biol. Chem. 1999 Jul. 30; 274(31): 21569-74 and Gosling J, et al., Cutting edge: identification of a novel chemokine receptor that binds dendritic cell-and T cell-active chemokines including ELC, SLC, and TECK., J. Immunol. 2000 Mar. 15; 164(6):2851-6 was used.
In these assays, MCF-7 and/or MDA-MB-435S cells were interrogated with the target compounds and the ability of these compounds to displace ^125I radiolabeled SDF-1 was assessed using the protocol described in Dairaghi and Gosling. The target compounds were added to the plate to the indicated concentration and were then incubated with cells followed by the addition of radiolabeled chemokine (^125I SDF-1) for 3 hr at 4° C. in the following binding medium (25 mM HEPES, 140 mM NaCl, 1 mM CaCl2, 5 mM MgCl2 and 0.2% bovine serum albumin, adjusted to pH 7.1). All assays were then incubated for 3 hrs at 4° C. with gentle agitation. Following incubation in all binding assays, reactions were aspirated onto PEI-treated GF/B glass filters (Packard) using a cell harvester (Packard) and washed twice (25 mM HEPES, 500 mM NaCl, 1 mM CaCl2, 5 mM MgCl2, adjusted to pH 7.1). […]

T1 sequence (P25106 whole entry): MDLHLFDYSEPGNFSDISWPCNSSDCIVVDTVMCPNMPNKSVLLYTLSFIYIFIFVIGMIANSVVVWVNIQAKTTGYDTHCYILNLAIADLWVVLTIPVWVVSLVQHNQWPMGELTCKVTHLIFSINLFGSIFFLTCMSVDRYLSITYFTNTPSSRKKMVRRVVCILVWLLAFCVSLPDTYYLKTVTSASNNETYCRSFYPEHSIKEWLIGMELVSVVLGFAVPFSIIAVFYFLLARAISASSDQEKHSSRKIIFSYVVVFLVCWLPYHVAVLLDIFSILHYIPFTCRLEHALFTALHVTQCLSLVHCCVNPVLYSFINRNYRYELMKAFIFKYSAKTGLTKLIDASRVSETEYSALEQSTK

For COc1cc(C(=O)N(Cc2ccc3cccnc3n2)C[C@@H]2CCCN2C[C@H]2C[C@H]3CC[C@@H](C2)N3)cc2c1OC(C)(C)O2 [Example 41], the pIC50 was > 6.30.

Same assay, conditions: MCF-7 and/or MDA-MB-435S cells expressing CCXCKR2; 125I SDF-1; 3 hr at 4° C.; read-out: Activity (ability to displace 125I SDF-1 from CCXCKR2)

COc1cc(C(=O)N(Cc2cnc3ccccc3c2)C[C@@H]2C[C@@H]3CCCC[C@@H]3N2)cc2c1OC(C)(C)O2 and COc1cc(C(=O)N(Cc2cc3ccccc3cn2)C[C@@H]2C[C@@H]3CCCC[C@@H]3N2)cc2c1OC(C)(C)O2 [Example 64, 7-Methoxy-2,2-dimethyl-benzo[1,3]dioxole-5-carboxylic acid isoquinolin-3-ylmethyl-[(2S,3aS,7aS)-1-(octahydro-indol-2-yl)methyl]-amide] cannot be ordered by pIC50: > 5.70 for the first, > 6.30 for the second.

COc1cc(C(=O)N(CCCN2CCCCC2C)Cc2ccc3ccccc3c2)cc(OC)c1OC (centres unmarked) [Example 18] and COc1cc(C(=O)N(CCCN2CCCCC2C)c2ccc3ccccc3c2)cc(OC)c1OC (centres unmarked) [Example 20, 3,4,5-Trimethoxy-N-[3-(2-methyl-piperidin-1-yl)-propyl]-N-naphthalen-2-yl-benzamide] cannot be ordered by pIC50: > 6.30 for the first, > 5.70 for the second.

COc1cc(C(=O)N(Cc2nc(-c3ccccn3)sc2Cl)C[C@@H]2CCCN2C2CCC2)cc2c1OC(C)(C)O2 and COc1cc(C(=O)N(Cc2cnc3ccccc3c2)C[C@@H]2CCCN2C2CCC2)cc2c1OC(C)(C)O2 cannot be ordered by pIC50: > 5.00 for the first, > 5.00 for the second.

COc1ccc(C(=O)N(Cc2cc3ccccc3s2)C[C@@H]2CCCN2CC2CCCCC2)cc1OC [Example 30, N-Benzo[b]thiophen-2-yl methyl-(S)—N-(1-cyclohexylmethyl-pyrrolidin-2-ylmethyl)-3,4-dimethoxy-benzamide] and COc1ccc(C(=O)N(Cc2nc3ccccc3s2)C[C@@H]2CCCN2CC2CCCCC2)cc1OC [Example 27, N-Benzothiazol-2-yl methyl-(S)—N-(1-cyclohexylmethyl-pyrrolidin-2-ylmethyl)-3,4-dimethoxy-benzamide] cannot be ordered by pIC50: > 6.30 for the first, > 6.30 for the second.

COc1cc(C(=O)N(Cc2cc3ccccc3c[n+]2[O-])C[C@@H]2C[C@@H]3CCCC[C@@H]3N2)cc2c1OC(C)(C)O2 [Example 65, 7-Methoxy-2,2-dimethyl-benzo[1,3]dioxole-5-carboxylic acid [(2S,3aS,7aS)-1-(octahydro-indol-2-yl)methyl]-(2-oxy-isoquinolin-3-ylmethyl)-amide] and COc1cc(C(=O)N(Cc2ccc3cc(F)ccc3n2)C[C@@H]2C[C@@H]3CCCC[C@@H]3N2)cc2c1OC(C)(C)O2 [Example 72, 7-Methoxy-2,2-dimethyl-benzo[1,3]dioxole-5-carboxylic acid (6-fluoro-quinolin-2-ylmethyl)-[(2S,3aS,7aS)-1-(octahydro-indol-2-yl)methyl]-amide] cannot be ordered by pIC50: > 5.70 for the first, > 6.30 for the second.

COc1cc(C(=O)N(C[C@@H]2CCCN2CC2CCCCC2)c2cccc(-c3ccccc3)c2)ccc1OC(F)F [Example 33, N-biphenyl-3-yl-(S)—N-(1-cyclohexylmethyl-pyrrolidin-2-ylmethyl)-4-difluoromethoxy-3-methoxy-benzamide] and COc1ccc(C(=O)N(C[C@@H]2CCCN2CCO)c2cccc(-c3ccccc3)c2)cc1OC [Example 22, N-Biphenyl-3-yl-(S)—N[1-(2-hydroxy-ethyl)-pyrrolidin-2ylmethyl]-3,4-dimethoxy-benzamide] cannot be ordered by pIC50: > 6.30 for the first, > 6.30 for the second.

COc1ccc(C(=O)N(C[C@@H]2CCCN2CC2CC2)c2cccc(-c3cccnc3)c2)cc1OC [Example 35, (S)—N-(1-Cyclopropylmethyl-pyrrolidin-2-ylmethyl)-3,4-dimethoxy-N-(3-pyridin-3-yl-phenyl)-benzamide] and COc1ccc(C(=O)N(Cc2ccc3ccccc3c2)C[C@@H]2CCCN2CC2CC=CCC2)cc1OC (some centres unmarked) [Example 1a] cannot be ordered by pIC50: > 5.70 for the first, > 6.30 for the second.

COc1cc(C(=O)N(Cc2cc3cc(Cl)ccc3o2)C[C@@H]2CCCN2)ccc1OC(F)F and COc1cc(C(=O)N(CCC2CCCN2C)Cc2cc3ccccc3o2)cc(OC)c1OC (centres unmarked) [Example 7, N-Benzofuran-2-ylmethyl-3,4,5-trimethoxy-N-[2-(1-methyl-pyrrolidin-2-yl)-ethyl]-benzamide] cannot be ordered by pIC50: > 6.30 for the first, > 6.30 for the second.

COc1cc(C(=O)N(Cc2nc(-c3ccccc3)cs2)C[C@@H]2C[C@@H]3CCCC[C@@H]3N2)cc2c1OC(C)(C)O2 [Example 51, 7-Methoxy-2,2-dimethyl-benzo[1,3]dioxole-5-carboxylic acid (octahydro-indol-2-ylmethyl)-(4-phenyl-thiazol-2-ylmethyl)-amide] and COc1cc(C(=O)N(Cc2nc(-c3ccccc3)c(C(F)(F)F)s2)C[C@@H]2C[C@@H]3CCCC[C@@H]3N2)cc2c1OC(C)(C)O2 [Example 77, 7-Methoxy-2,2-dimethyl-benzo[1,3]dioxole-5-carboxylic acid [(2S,3aS,7aS)-1-(octahydro-indol-2-yl)methyl]-(4-phenyl-5-trifluoromethyl-thiazol-2-ylmethyl)-amide] cannot be ordered by pIC50: > 6.30 for the first, > 6.30 for the second.

COc1cc(C(=O)N(Cc2ccc3ccccc3n2)C[C@@H]2CCCN2CC2CNC2)cc2c1OC(C)(C)O2 [Example 44, 7-Methoxy-2,2-dimethyl-benzo[1,3]dioxole-5-carboxylic acid ((S)-1-azetidin-3-ylmethyl-pyrrolidin-2-ylmethyl)-quinolin-2-ylmethyl-amide] and COc1cc(C(=O)N(Cc2cc3ccccc3nn2)C[C@@H]2CCCN2C2CCC2)cc2c1OC(C)(C)O2 [Example 74, 7-Methoxy-2,2-dimethyl-benzo[1,3]dioxole-5-carboxylic acid cinnolin-3-ylmethyl-((S)-1-cyclobutyl-pyrrolidin-2-ylmethyl)-amide] cannot be ordered by pIC50: > 6.30 for the first, > 5.70 for the second.

COc1cc(C(=O)N(CCCN2CCCCC2C)Cc2ncc(-c3ccccc3)s2)cc(OC)c1OC (centres unmarked) [Example 19, 3,4,5-Trimethoxy-N-[3-(2-methyl-piperidin-1-yl)-propyl]-N-(5-phenyl-thiazol-2-ylmethyl)-benzamide] and COc1cc(C(=O)N(CCC2CCCN2C)Cc2cc3ccccc3s2)cc(OC)c1OC (centres unmarked) [Example 8, N-Benzo[b]thiophen-2-ylmethyl-3,4,5-trimethoxy-N-[2-(1-methyl-pyrrolidin-2-yl)-ethyl]-benzamide] cannot be ordered by pIC50: > 5.70 for the first, > 6.30 for the second.

COc1cc(C(=O)N(Cc2ccc3cc(Cl)ccc3n2)C[C@@H]2C[C@@H]3CCCC[C@@H]3N2)cc2c1OC(C)(C)O2 [Example 73, 7-Methoxy-2,2-dimethyl-benzo[1,3]dioxole-5-carboxylic acid (6-chloro-quinolin-2-ylmethyl)-[(2S,3aS,7aS)-1-(octahydro-indol-2-yl)methyl]-amide] and COc1cc(C(=O)N(C[C@@H]2C[C@@H]3CCCC[C@@H]3N2)C(C)c2ccc3ccccc3n2)cc2c1OC(C)(C)O2 (stereo partly drawn) [Example 71, 7-Methoxy-2,2-dimethyl-benzo[1,3]dioxole-5-carboxylic acid [(2S,3aS,7aS)-1-(octahydro-indol-2-yl)methyl]-(1-quinolin-2-yl-ethyl)-amide] cannot be ordered by pIC50: > 6.30 for the first, > 6.30 for the second.

For COc1cc(C(=O)N(CCC2CCCN2C)Cc2csc3ccccc23)cc(OC)c1OC (centres unmarked) [Example 12, N-Benzo[b]thiophen-3-ylmethyl-3,4,5-trimethoxy-N-[2-(1-methyl-pyrrolidin-2-yl)-ethyl]-benzamide], the pIC50 was > 5.70.
